# Measurements as given in paper PMC12064818, “A general assay platform to study protein pharmacology using ligand-dependent structural dynamics” (Nature Communications, 2025).
# Columns and labels:
# [1] = molecular target: FLuc-N-HiBiT (firefly luciferase) (Photinus pyralis, UniProt P08659, form not given/L550V); experiment: SDR assay, FLuc-N-HiBiT; settings: for % Activity (max response) / % Activity (max response, + ATP) / % Activity (max response, - ATP): SDR; for % Activity (max response, + ATP) / % Activity (max response, - ATP) / pSDR50 (clade A'): substituted indoline (clade A')
# FLuc-N-HiBiT (firefly luciferase), sequence (P08659 2-550 L550V, form open): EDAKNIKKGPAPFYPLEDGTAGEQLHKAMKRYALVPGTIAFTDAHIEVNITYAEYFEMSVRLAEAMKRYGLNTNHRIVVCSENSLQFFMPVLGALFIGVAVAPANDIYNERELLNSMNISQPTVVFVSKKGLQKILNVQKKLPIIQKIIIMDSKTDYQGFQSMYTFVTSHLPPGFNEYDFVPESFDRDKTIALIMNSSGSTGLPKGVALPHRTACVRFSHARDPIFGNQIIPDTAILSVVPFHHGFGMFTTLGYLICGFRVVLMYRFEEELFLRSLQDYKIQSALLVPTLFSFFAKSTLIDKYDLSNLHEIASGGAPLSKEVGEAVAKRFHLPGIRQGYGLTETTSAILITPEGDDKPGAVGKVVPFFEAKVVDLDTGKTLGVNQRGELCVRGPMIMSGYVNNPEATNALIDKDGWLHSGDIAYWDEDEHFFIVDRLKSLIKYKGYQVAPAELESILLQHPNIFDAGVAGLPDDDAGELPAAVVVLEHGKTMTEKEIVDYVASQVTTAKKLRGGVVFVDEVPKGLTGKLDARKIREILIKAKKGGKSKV
# [2] = molecular target: PKA-N-HiBiT (Homo sapiens, UniProt P17612); experiment: SDR assay, PKA-N-HiBiT
# [3] = molecular target: T1, ABL1-N-HiBiT kinase domain (Homo sapiens, UniProt P00519); experiment: SDR assay, ABL1-N-HiBiT; settings: ABL1-N-HiBiT qHTS, SDR assay, average maximal response
# T1 sequence (P00519 233-500): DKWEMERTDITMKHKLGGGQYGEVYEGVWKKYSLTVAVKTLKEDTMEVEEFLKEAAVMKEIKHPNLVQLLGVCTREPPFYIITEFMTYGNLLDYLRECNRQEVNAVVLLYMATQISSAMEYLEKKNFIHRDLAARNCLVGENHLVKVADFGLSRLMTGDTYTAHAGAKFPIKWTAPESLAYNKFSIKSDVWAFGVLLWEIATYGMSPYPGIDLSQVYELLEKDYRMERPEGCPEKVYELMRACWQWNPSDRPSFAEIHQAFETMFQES
# [4] = molecular target: T2, FLuc-C-HiBiT (Photinus pyralis, UniProt P08659); experiment: biochemical; settings: enzyme activity, 10 uM ATP; read-out: IC50 or SDR50 (mM) / FLuc E
# T2 construct: firefly luciferase with C-terminal HiBiT tag, E. coli expressed
# T2 sequence (P08659 whole entry, looked up): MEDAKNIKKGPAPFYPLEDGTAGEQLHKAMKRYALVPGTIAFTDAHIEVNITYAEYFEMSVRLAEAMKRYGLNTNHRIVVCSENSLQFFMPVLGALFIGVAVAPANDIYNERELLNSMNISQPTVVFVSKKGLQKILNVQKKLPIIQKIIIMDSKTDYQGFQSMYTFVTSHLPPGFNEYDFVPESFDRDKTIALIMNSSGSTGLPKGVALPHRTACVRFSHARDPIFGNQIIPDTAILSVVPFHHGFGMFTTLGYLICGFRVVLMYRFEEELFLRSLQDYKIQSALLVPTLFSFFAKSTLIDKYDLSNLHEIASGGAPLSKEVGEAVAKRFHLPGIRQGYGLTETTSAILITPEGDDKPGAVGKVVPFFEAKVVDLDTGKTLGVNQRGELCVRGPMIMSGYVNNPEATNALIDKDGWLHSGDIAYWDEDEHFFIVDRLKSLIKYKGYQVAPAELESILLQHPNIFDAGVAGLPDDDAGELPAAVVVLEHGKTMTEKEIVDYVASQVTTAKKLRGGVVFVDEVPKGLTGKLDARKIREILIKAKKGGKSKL
# [5] = ATP-independent imidazo[2,1-b]thiazole (clade O) series
# [6] = ATP-independent pyrazolo pyrimidine (clade P)
SMILES,IC50 [4],"% Activity (max response, + ATP) ([1]; + ATP)","% Activity (max response, - ATP) ([1]; - ATP)",pSDR50 (clade A') ([1]; + ATP),pSDR50 (clade A') ([1]; - ATP),also measured
Clc1ccccc1Cc1cn2cc(-c3ccccc3)nc2s1 [Compound 0],–,–,–,–,–,"pSDR50 (clade O) [1, 5]: 5.98; % Activity (max response) [1, 5]: 50.48%"
Fc1ccc(Cc2cn3cc(-c4ccccc4)nc3s2)cc1 [Compound 2],–,–,–,–,–,"pSDR50 (clade O) [1, 5]: 5.92; % Activity (max response) [1, 5]: 39.94%"
Clc1ccc(-c2cn3cc(Cc4ccccc4)sc3n2)cc1 [Compound 4],–,–,–,–,–,"pSDR50 (clade O) [1, 5]: 5.57; % Activity (max response) [1, 5]: 64.57%"
Fc1ccccc1Cc1cn2cc(-c3ccc(Cl)cc3)nc2s1 [Compound 6],–,–,–,–,–,"pSDR50 (clade O) [1, 5]: 5.50; % Activity (max response) [1, 5]: 29.23%"
Fc1ccc(-c2cn3cc(Cc4ccccc4)sc3n2)cc1 [Compound 10],–,–,–,–,–,"pSDR50 (clade O) [1, 5]: 5.73; % Activity (max response) [1, 5]: 39.11%"
Fc1ccc(-c2cn3cc(Cc4ccccc4Cl)sc3n2)cc1 [Compound 30],–,–,–,–,–,"pSDR50 (clade O) [1, 5]: 5.26; % Activity (max response) [1, 5]: 49.79%"
Fc1ccc(Cc2cn3cc(-c4ccc(F)cc4)nc3s2)cc1 [Compound 34],–,–,–,–,–,"pSDR50 (clade O) [1, 5]: 6.28; % Activity (max response) [1, 5]: 22.33%"
Brc1ccc(-c2cn3cc(Cc4ccccc4)sc3n2)cc1 [Compound 36],–,–,–,–,–,"pSDR50 (clade O) [1, 5]: 5.89; % Activity (max response) [1, 5]: 18.18%"
Cc1ccc(Cc2cn3cc(-c4ccccc4)nc3s2)cc1 [Compound 98],–,–,–,–,–,"pSDR50 (clade O) [1, 5]: 5.78; % Activity (max response) [1, 5]: 56.11%"
c1ccc(-n2ncc3c(N4CCCCC4)ncnc32)cc1 [Compound 373],–,–,–,–,–,"pSDR50 (clade P) [1, 6]: 5.48; % Activity (max response) [1, 6]: 80.68%"
CC1CCCN(c2ncnc3c2cnn3-c2ccccc2)C1 (stereo not drawn) [Compound 381],–,–,–,–,–,"pSDR50 (clade P) [1, 6]: 5.61; % Activity (max response) [1, 6]: 79.86%"
CC1CCCN(c2ncnc3c2cnn3-c2ccc(Cl)cc2)C1 (stereo not drawn) [Compound 383],–,–,–,–,–,"pSDR50 (clade P) [1, 6]: 5.51; % Activity (max response) [1, 6]: 116.20%"
Nc1ncc(-c2cnn(CCO)c2)c2scc(-c3ccc(NC(=O)Nc4cccc(F)c4)cc3)c12 [Ilorasertib],–,–,–,–,–,"SDR Ave Max Response ([2]; PKA-N-HiBiT qHTS, average): 5.66; SDR Ave Max Response [3]: 123.93"
CCOC(=O)C1CCN(C(=O)c2cccc3c2CCN3C(=O)Nc2ccccc2)CC1 [NCGC00430100-01],1.76 µM,124.90%,16.28%,5.52,–,–
CN(Cc1ccccc1)C(=O)c1cccc2c1CCN2C(=O)Nc1ccccc1 [NCGC00430102-01],0.279 µM,122.30%,17.23%,6.38,5.03,–
CC(NC(=O)c1cccc2c1CCN2C(=O)Nc1ccccc1)c1cccnc1 (stereo not drawn) [NCGC00430104-01],1.76 µM,120.10%,19.02%,5.53,4.71,–
CN(Cc1ccco1)C(=O)c1cccc2c1CCN2C(=O)Nc1ccccc1 [NCGC00430106-01],0.197 µM,117.40%,20.13%,6.53,2.52,–

SMILES,IC50 [4],"% Activity (max response, + ATP) ([1]; + ATP)","% Activity (max response, - ATP) ([1]; - ATP)",pSDR50 (clade A') ([1]; + ATP),pSDR50 (clade A') ([1]; - ATP),also measured
CCN1CCN(CCNC(=O)c2cccc3c2CCN3C(=O)Nc2ccc(C)cc2)CC1 [NCGC00430114-01],1.11 µM,125.50%,93.19%,5.79,4.11,–
CCCNC(=O)c1cccc2c1CCN2C(=O)Nc1cccc(C)c1 [NCGC00430116-01],2.48 µM,115.10%,34.94%,5.48,3.57,–
Cc1cccc(NC(=O)N2CCc3c(C(=O)N4CCN(C)CC4)cccc32)c1 [NCGC00430118-01],1.76 µM,120.00%,22.45%,5.59,3.92,–
CCC(C)(C)NC(=O)c1cccc2c1CCN2C(=O)Nc1cccc(C)c1 [NCGC00430120-01],7.85 µM,86.92%,21.61%,4.90,2.52,–
Cc1cccc(NC(=O)N2CCc3c(C(=O)NC(C)(C)C)cccc32)c1 [NCGC00430124-01],8.81 µM,30.08%,45.88%,3.69,4.31,–
COc1ccc(NC(=O)N2CCc3c(C(=O)NCCCN4CCCC4=O)cccc32)cc1 [NCGC00430130-01],0.248 µM,129.70%,57.00%,6.47,4.44,–
COc1ccc(NC(=O)N2CCc3c(C(=O)NCCN4CCCCCC4)cccc32)cc1 [NCGC00430136-01],0.556 µM,125.00%,26.27%,6.10,3.93,–
COc1ccc(NC(=O)N2CCc3c(C(=O)N(C)Cc4ccco4)cccc32)cc1 [NCGC00430138-01],1.76 µM,125.10%,31.17%,5.60,3.60,–
O=C(NCc1ccco1)c1cccc2c1CCN2C(=O)Nc1ccc(F)cc1 [NCGC00430142-01],1.11 µM,118.20%,37.02%,5.76,3.81,–
CCCCNC(=O)c1cccc2c1CCN2C(=O)Nc1ccccc1 [NCGC00430146-01],1.57 µM,123.10%,25.03%,5.71,5.51,–
CN(C)CCNC(=O)c1cccc2c1CCN2C(=O)Nc1ccccc1 [NCGC00430150-01],0.7 µM,120.00%,17.07%,5.93,–,–
CNC(=O)c1cccc2c1CCN2C(=O)Nc1ccc(C)cc1 [NCGC00430160-01],0.351 µM,123.10%,78.58%,6.37,4.88,–
Cc1ccc(NC(=O)N2CCc3c(C(=O)NCc4ccco4)cccc32)cc1 [NCGC00430166-01],0.0495 µM,127.00%,89.24%,7.11,5.17,–
Cc1ccc(NC(=O)N2CCc3c(C(=O)NCCc4ccccn4)cccc32)cc1 [NCGC00430168-01],4.42 µM,131.70%,51.01%,4.89,4.36,–
COc1ccc(NC(=O)N2CCc3c(C(=O)NCc4ccncc4)cccc32)cc1 [NCGC00430180-01],0.624 µM,125.10%,68.63%,6.06,4.73,–
Oc1ccc(-c2ccc(-c3cc(Nc4cccc(CNC5CC5)c4)n[nH]3)cc2)c(O)c1 [TCS 2312],–,–,–,–,–,EC50 [2]: 17.4 µM
